Measured values taken from the NIST ThermoML archive (doi:10.1016/j.jct.2013.01.005).
Numbers after ± are expanded uncertainties.

How the values were obtained:
[1] = 101.33 kPa, Liquid, Vibrating tube method
[2] = activity coefficient (dimensionless); of the first substance listed, at infinite dilution; xn = mol fraction of the nth substance listed; conditions: 101 kPa, Liquid, Chromatography, x1 = 0

Compound | activity coefficient ([2]; 308.15 K) | activity coefficient ([2]; 318.15 K) | activity coefficient ([2]; 328.15 K) | activity coefficient ([2]; 338.15 K) | activity coefficient ([2]; 348.15 K) | activity coefficient ([2]; 358.15 K) | other results
CCCCCC[N+]1(C)CCCCC1.O=S(=O)([N-]S(=O)(=O)C(F)(F)F)C(F)(F)F |  |  |  |  |  |  | mass density ([1]; 293.15 K): 1329.53 ± 0.18 kg/m3; mass density ([1]; 298.15 K): 1325.41 ± 0.18 kg/m3; mass density ([1]; 303.15 K): 1321.3 ± 0.18 kg/m3; mass density ([1]; 308.15 K): 1317.2 ± 0.18 kg/m3; mass density ([1]; 313.15 K): 1313.11 ± 0.18 kg/m3; mass density ([1]; 318.15 K): 1309.04 ± 0.18 kg/m3; mass density ([1]; 323.15 K): 1304.98 ± 0.18 kg/m3; mass density ([1]; 328.15 K): 1300.93 ± 0.18 kg/m3; mass density ([1]; 333.15 K): 1296.9 ± 0.17 kg/m3; mass density ([1]; 338.15 K): 1292.88 ± 0.17 kg/m3; mass density ([1]; 343.15 K): 1288.87 ± 0.17 kg/m3; mass density ([1]; 348.15 K): 1284.87 ± 0.17 kg/m3; mass density ([1]; 353.15 K): 1280.88 ± 0.17 kg/m3; mass density ([1]; 358.15 K): 1276.91 ± 0.17 kg/m3
CCCCC[N+]1(C)CCCCC1.O=S(=O)([N-]S(=O)(=O)C(F)(F)F)C(F)(F)F |  |  |  |  |  |  | mass density ([1]; 293.15 K): 1354.47 ± 0.26 kg/m3; mass density ([1]; 298.15 K): 1350.13 ± 0.26 kg/m3; mass density ([1]; 303.15 K): 1345.85 ± 0.26 kg/m3; mass density ([1]; 308.15 K): 1341.7 ± 0.26 kg/m3; mass density ([1]; 313.15 K): 1337.54 ± 0.26 kg/m3; mass density ([1]; 318.15 K): 1333.36 ± 0.25 kg/m3; mass density ([1]; 323.15 K): 1329.2 ± 0.25 kg/m3; mass density ([1]; 328.15 K): 1325.05 ± 0.25 kg/m3; mass density ([1]; 333.15 K): 1320.89 ± 0.25 kg/m3; mass density ([1]; 338.15 K): 1316.75 ± 0.25 kg/m3; mass density ([1]; 343.15 K): 1312.6 ± 0.24 kg/m3; mass density ([1]; 348.15 K): 1308.46 ± 0.24 kg/m3; mass density ([1]; 353.15 K): 1304.36 ± 0.24 kg/m3; mass density ([1]; 358.15 K): 1300.26 ± 0.24 kg/m3
CCCOCCC [dipropyl ether] + CCCCCC[N+]1(C)CCCCC1.O=S(=O)([N-]S(=O)(=O)C(F)(F)F)C(F)(F)F | 3.5 ± 0.24 | 3.47 ± 0.24 | 3.44 ± 0.23 | 3.41 ± 0.23 | 3.38 ± 0.23 | 3.37 ± 0.23 | 
CCCOCCC [dipropyl ether] + CCCCC[N+]1(C)CCCCC1.O=S(=O)([N-]S(=O)(=O)C(F)(F)F)C(F)(F)F | 4.17 ± 0.28 | 4.13 ± 0.28 | 4.05 ± 0.28 | 4.02 ± 0.27 | 3.98 ± 0.27 | 3.96 ± 0.27 | 
CCO [ethanol] + CCCCCC[N+]1(C)CCCCC1.O=S(=O)([N-]S(=O)(=O)C(F)(F)F)C(F)(F)F | 1.81 ± 0.12 | 1.63 ± 0.11 | 1.49 ± 0.1 | 1.37 ± 0.09 | 1.27 ± 0.08 | 1.18 ± 0.08 | 
CCO [ethanol] + CCCCC[N+]1(C)CCCCC1.O=S(=O)([N-]S(=O)(=O)C(F)(F)F)C(F)(F)F | 1.79 ± 0.12 | 1.58 ± 0.1 | 1.46 ± 0.1 | 1.35 ± 0.09 | 1.27 ± 0.08 | 1.18 ± 0.08 | 
CCc1ccccc1 [ethylbenzene] + CCCCCC[N+]1(C)CCCCC1.O=S(=O)([N-]S(=O)(=O)C(F)(F)F)C(F)(F)F | 0.864 ± 0.055 | 0.894 ± 0.057 | 0.909 ± 0.058 | 0.934 ± 0.059 | 0.957 ± 0.06 | 0.969 ± 0.061 | 
CCc1ccccc1 [ethylbenzene] + CCCCC[N+]1(C)CCCCC1.O=S(=O)([N-]S(=O)(=O)C(F)(F)F)C(F)(F)F | 1.26 ± 0.08 | 1.31 ± 0.09 | 1.35 ± 0.09 | 1.37 ± 0.09 | 1.42 ± 0.09 | 1.43 ± 0.09 | 
CCCCCCC [heptane] + CCCCCC[N+]1(C)CCCCC1.O=S(=O)([N-]S(=O)(=O)C(F)(F)F)C(F)(F)F | 10.2 ± 0.7 | 9.81 ± 0.67 | 9.38 ± 0.64 | 8.99 ± 0.61 | 8.68 ± 0.59 | 8.2 ± 0.56 | 
CCCCCCC [heptane] + CCCCC[N+]1(C)CCCCC1.O=S(=O)([N-]S(=O)(=O)C(F)(F)F)C(F)(F)F | 13.6 ± 0.9 | 12.4 ± 0.8 | 11.8 ± 0.8 | 11.3 ± 0.8 | 10.8 ± 0.7 | 10.4 ± 0.7 | 
C=CCCCC [hex-1-ene] + CCCCCC[N+]1(C)CCCCC1.O=S(=O)([N-]S(=O)(=O)C(F)(F)F)C(F)(F)F | 4.53 ± 0.31 | 4.45 ± 0.3 | 4.34 ± 0.3 | 4.28 ± 0.29 | 4.15 ± 0.28 | 4.06 ± 0.28 | 
C=CCCCC [hex-1-ene] + CCCCC[N+]1(C)CCCCC1.O=S(=O)([N-]S(=O)(=O)C(F)(F)F)C(F)(F)F | 5.52 ± 0.38 | 5.31 ± 0.36 | 5.13 ± 0.35 | 5 ± 0.34 | 4.92 ± 0.34 | 4.8 ± 0.33 | 
CCCCCC [hexane] + CCCCCC[N+]1(C)CCCCC1.O=S(=O)([N-]S(=O)(=O)C(F)(F)F)C(F)(F)F | 7.67 ± 0.52 | 7.4 ± 0.5 | 7.07 ± 0.48 | 6.85 ± 0.47 | 6.67 ± 0.45 | 6.37 ± 0.43 | 
CCCCCC [hexane] + CCCCC[N+]1(C)CCCCC1.O=S(=O)([N-]S(=O)(=O)C(F)(F)F)C(F)(F)F | 9.9 ± 0.68 | 9.5 ± 0.65 | 8.9 ± 0.61 | 8.45 ± 0.58 | 8.19 ± 0.56 | 7.92 ± 0.54 | 
CO [methanol] + CCCCCC[N+]1(C)CCCCC1.O=S(=O)([N-]S(=O)(=O)C(F)(F)F)C(F)(F)F | 1.51 ± 0.1 | 1.37 ± 0.09 | 1.26 ± 0.08 | 1.16 ± 0.07 | 1.08 ± 0.07 | 0.995 ± 0.062 | 
CO [methanol] + CCCCC[N+]1(C)CCCCC1.O=S(=O)([N-]S(=O)(=O)C(F)(F)F)C(F)(F)F | 1.45 ± 0.1 | 1.32 ± 0.09 | 1.21 ± 0.08 | 1.12 ± 0.07 | 1.07 ± 0.07 | 1 ± 0.06 | 
CC1CCCCC1 [methylcyclohexane] + CCCCCC[N+]1(C)CCCCC1.O=S(=O)([N-]S(=O)(=O)C(F)(F)F)C(F)(F)F | 6.24 ± 0.43 | 6.05 ± 0.41 | 5.83 ± 0.4 | 5.59 ± 0.38 | 5.4 ± 0.37 | 5.2 ± 0.35 | 
CC1CCCCC1 [methylcyclohexane] + CCCCC[N+]1(C)CCCCC1.O=S(=O)([N-]S(=O)(=O)C(F)(F)F)C(F)(F)F | 7.8 ± 0.53 | 7.49 ± 0.51 | 7.16 ± 0.49 | 6.87 ± 0.47 | 6.64 ± 0.45 | 6.42 ± 0.44 | 
